Laboratory results reported in patent US5981256A, “Recombinant stratum corneum chymotryptic enzyme (SCCE)” (priority 1993, dated 1999).
Square brackets hold non-standard residues; d marks the D form. Peptide text beside a SMILES is read from it. * marks the point of attachment. Sta = CC(C)C[C@H](N)[C@@H](O)CC(=O)O; Isovaleryl = CC(C)CC(=O)*

What was measured:
[1] = biological target: proteinase associated with plantar stratum corneum cells (native human stratum corneum chymotryptic enzyme, SCCE) (Homo sapiens, UniProt P49862); test: Hydrolysis of S-2586 by the proteinase associated with plantar stratum corneum cells (suspended cells); settings: for Activity (%) (±SD, n = 3), hydrolysis of S-2586: pH 8, control = 100
[2] = system: plantar stratum corneum; test: Cell release (cell shedding) from plantar stratum corneum in vitro; assay type: cell-based; settings: Homo sapiens, 16 hours at 37° C., mean and SD for five tissue pieces
Procedure: A method to quantify the cell shedding was then developed, which allowed studies on the effects of various parameters such as temperature, pH, and enzyme inhibitors. Cylinders of plantar stratum corneum with diameter 3 mm were prepared with a biopsy punch from flakes of tissue taken and freed from loosely attached surface cells as described above in 1.1. […] The remaining tissue was removed and placed in fresh media for continued incubation. Tubes with released cells were centrifuged for 2 min at 5000 g to collect the cells. The cell pellets were washed once with 0.5 ml of phosphate buffered saline and then treated at 60° C. for 1.5 hours with 0.6 ml of 1 M sodium hydroxide. The alkali soluble protein was quantified according to Lowry et al., 1951, and taken as a measure of the amount of released cells.

[3] = system: plantar stratum corneum; settings: cited from earlier work
[4] = biological target: T1, 25 kD caseinolytic enzyme of plantar corneocytes (native stratum corneum chymotryptic enzyme, SCCE) (Homo sapiens, UniProt P49862); test: Zymography (SDS-PAGE with co-polymerized casein) of extracts of plantar corneocytes; assay type: biochemical; settings: pH 8
T1 construct: from tissue; host or cells: human plantar stratum corneum, dissociated corneocytes (suspended cells, SDS-extract or KCl-extract)
Procedure: C: The effect of inhibitors. sc=SDS-extract of plantar corneocytes; c=bovine chymotrypsin; t=bovine trypsin. The inhibitors were present during pretreatment with Triton X-100 and the subsequent incubation. […] Leupeptin and chymostatin were added as solutions in dimethylsulphoxide (DMSO). Buffer for pretreatment and incubation=0.1 M Tris-HCl pH 8 with final concentration of DMSO 1% (v/v). Other conditions as in A.
SDS-PAGE and Coomassie blue-staining (A) and zymography after SDS-PAGE with co-polymerized casein (B) of fractions 2, 6, and 10 from the chromatogram shown in FIG. 10. Molecular weight markers to the left.
Therefore experiments with zymography were performed. For this reason KCl extracts of corneocytes were prepared for electrophoresis according to Laemmli (Laemmli 1970) but with no reducing agent in the sample buffer and with no heating of the samples. Samples were also prepared by means of extraction of dissociated plantar corneocytes with Laemmli's sample buffer without reducing agent at room temperature. For zymography a modification of the procedure of Horie et al. (Horie et al. 1984) was adopted. Polyacrylamide gel elctrophoresis in the presence of sodium dodecyl sulphate (SDS-PAGE) was carried out according to Laemmli in 12.5% gels with 1% co-polymerized heat-denatured casein. […]

[5] = system: desmoglein I (DG I) in plantar stratum corneum; test: Degradation of desmoglein I (DG I) in plantar stratum corneum during cell shedding in vitro (immunoblot); assay type: cell-based, human; settings: inhibitor 330 μM; 24 hours
Procedure: The fate of desmoglein I (DG I) during cell shedding in vitro from plantar stratum corneum was studied. Plantar stratum corneum was incubated as described above in 1.1, and still cohesive tissue was separated from dissociated cells. Cells and tissue were extracted in a buffer containing 0.1 M Tris-HCl pH 9, 9 M urea, 2% sodium dodecylsulphate, 1% mercaptoethanol, 1 ml buffer per 20 mg of tissue, for 15 hours at 37° C. The extracts were prepared for polyacrylamide gel electrophoresis in 7.5% gels in the presence of sodium dodecyl sulphate (SDS-PAGE) according to Laemmli (Laemmli, 1970), followed by electrophoretic transfer (Towbin et al., 1979) to a nitrocellulose membrane (Bio-Rad, Richmond, Calif.) which was probed with a rabbit polyclonal antiserum prepared against DG I purified from bovine muzzles (Gorbsky et al. 1985). Bound antibodies were detected with alkaline phosphatase conjugated goat anti-rabbit immunoglobulins (Bio-Rad, Richmond, Calif.) (Blake et al. 1984).
SDS-PAGE and immunoblotting was performed as described above. Densitometric scannings of the immunblots were carried out in a Shimadzu CS-9000 flying spot scanner (Shimadzu, Kyoto, Japan) with reflected light at 560 nm in the zigzag mode.

[6] = biological target: T2, human cathepsin G (from purulent human sputum) (Homo sapiens, UniProt P08311); test: Proteinase assay with chromogenic substrate S-2586, human cathepsin G; assay type: biochemical; settings: S-2586 1.2 mM; pH 8.0; 37° C.; FIG. 9B
T2 construct: Cathepsin G from purulent human sputum; tissue E. Lotti, Geneva, Switzerland; host or cells: purulent human sputum
T2 sequence (P08311 21-244 limits assumed): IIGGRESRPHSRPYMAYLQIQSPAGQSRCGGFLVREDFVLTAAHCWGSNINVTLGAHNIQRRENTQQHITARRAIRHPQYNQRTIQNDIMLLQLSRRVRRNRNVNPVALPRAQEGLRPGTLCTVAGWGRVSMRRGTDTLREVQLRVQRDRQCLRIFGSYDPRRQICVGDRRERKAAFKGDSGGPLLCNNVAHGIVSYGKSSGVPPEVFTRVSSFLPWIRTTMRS
Procedure: (§1) Stock solution of MeO-Suc-Arg-Pro-Tyr-pNA (S-2586) was prepared in distilled water, of Suc-Ala-Ala-Pro-Phe-pNA (SEQ ID NO:11) (Boehringer, Mannheim, Germany) in 1-methyl-2-pyrrolidone (final concentration of solvent in incubation mixtures 4%) and of chymostatin in dimethyl sulphoxide (final concentration of solvent in incubation mixtures 1%). Cathepsin G from purulent human sputum was obtained from E. Lotti, Geneva, Switzerland. The source of SCCE was KCl-extract of dissociated plantar corneocytes prepared as described above.
(§2) Incubations were performed at 37° C. in microtiter plates. The total incubation volume was 135 μl. Each incubation mixture contained Tris-HCl pH 8.0 (final concentration 0.08 M), KCl (final concentration 0.2 M), 100 μl substrate solution, 25 μl enzyme source (appropriately diluted in 0.1 M Tris-HCl pH 8.0, 1.0 M KCl) and 10 μl inhibitor solution.
(§3) In FIG. 9, A-C, MeO-Suc-Arg-Pro-Tyr-pNA (S-2586, initial concentration 1.2 mM) was used as substrate. In D the initial concentration of both substrates was 1.2 mM.

[7] = biological target: bovine chymotrypsin (Bos taurus, UniProt P00766); test: Proteinase assay with chromogenic substrate S-2586, bovine chymotrypsin; assay type: biochemical; settings: S-2586 1.2 mM; pH 8.0; 37° C.; FIG. 9B
Procedure: as §1, §2, §3

[8] = biological target: T3, native stratum corneum chymotryptic enzyme (SCCE), KCl-extract of dissociated plantar corneocytes (Homo sapiens, UniProt P49862); test: Proteinase assay with chromogenic substrate S-2586, native SCCE; assay type: biochemical; settings: S-2586 1.2 mM, pH 8.0, FIG. 9B
T3 construct: from tissue; host or cells: human plantar stratum corneum, dissociated corneocytes (suspended cells, SDS-extract or KCl-extract)
Procedure: as §1, §2, §3

[9] = biological target: T4, recombinant human stratum corneum chymotryptic enzyme (rSCCE), SEQ ID NO:2 (Homo sapiens, UniProt P49862); test: S-2586 hydrolysing activity of recombinant SCCE with inhibitors; assay type: biochemical; settings: no inhibitor = 100
T4 construct: made in house; host or cells: murine C127 cells (ATCC CRL 1616), vector pS507
Procedure: as §2, §3
The experimental design was as outlined in Example 3.2.

[10] = pH 8, read-out: Activity (%) (±SD, n = 3), hydrolysis of S-2586

T1 sequence (P49862 30-253): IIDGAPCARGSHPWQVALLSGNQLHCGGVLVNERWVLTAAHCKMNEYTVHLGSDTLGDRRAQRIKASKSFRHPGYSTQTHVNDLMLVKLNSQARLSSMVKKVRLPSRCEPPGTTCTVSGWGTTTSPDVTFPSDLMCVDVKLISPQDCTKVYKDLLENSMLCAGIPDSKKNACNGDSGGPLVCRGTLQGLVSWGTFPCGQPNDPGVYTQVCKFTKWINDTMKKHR
Sequence of proteinase associated with plantar stratum corneum cells (native human stratum corneum chymotryptic enzyme, SCCE) (P49862 30-253): as above
T4 sequence (P49862 30-253): as above
T3 sequence (P49862 30-253): as above

O=C(O)CN(CCN(CC(=O)O)CC(=O)O)CC(=O)O [EDTA]
activity at 4200 µM [1, 10]: 109 ± 1%

NC(=O)CI [Iodoacetamide, iodoacetamide]
inhibition at 1000 µM ([2]; iodoacetamide 1 × 10^-3 mol/l): 6 ± 13%

CC(=O)N[C@@H](CC(C)C)C(=O)N[C@@H](CC(C)C)C(=O)N[C@H](C=O)CCCNC(=N)N [Leupeptin, leupeptin]
Effect on the in vitro cell shedding [3]: no effect | Inhibition of caseinolytic activity (zymography) ([4]; leupeptin 160 μM): not by leupeptin | activity at 325 µM [1, 10]: 93 ± 3%

O=S(=O)(F)Cc1ccccc1 [PMSF, phenylmethylsulphonyl fluoride]
Activity (%) (±SD, n = 3), hydrolysis of S-2586 ([1]; PMSF 1 mM, preincubated 1 hour at room temperature): 8 ± 3%

CC(C)CC(=O)N[C@H](C(=O)N[C@H](C(=O)N[C@@H](CC(C)C)[C@@H](O)CC(=O)N[C@@H](C)C(=O)N[C@@H](CC(C)C)[C@@H](O)CC(=O)O)C(C)C)C(C)C [Pepstatin, pepstatin] (Isovaleryl-VV[Sta]A[Sta]-OH)
inhibition at 100 µM ([2]; pepstatin 1 × 10^-4 mol/l): 8 ± 4%

chymostatin
Inhibition of the transformation of anti-DG I positive components from 160 kD to 95 and 80 kD [5]: inhibition | Inhibition of the first step of cell shedding in vitro ([3]; first step, takes place with or without EDTA): could be inhibited | Inhibition of the second step of cell shedding in vitro ([3]; second step, only in the presence of EDTA): could be inhibited | Inhibition of S-2586 hydrolysis [6]: caused inhibition | Inhibition of S-2586 hydrolysis [7]: caused inhibition | Inhibition of caseinolytic activity (zymography) ([4]; chymostatin 40 μM): could be inhibited | Activity (%) (±SD, n = 3), hydrolysis of S-2586 ([1]; chymostatin 11 μM, 5% DMSO): 66 ± 9% | Activity (%) (±SD, n = 3), hydrolysis of S-2586 ([1]; chymostatin 55 μM, 5% DMSO): 32 ± 0% | Activity (%) (±SD, n = 3), hydrolysis of S-2586 ([1]; chymostatin 275 μM, 5% DMSO): 15 ± 3% | Inhibition of S-2586 hydrolysis ([8]; 37° C.): caused inhibition | Inhibitor concentration that caused 50% inhibition, SCCE compared with chymotrypsin and cathepsin G [8]: more than three orders of magnitude higher | Activity (%), S-2586 hydrolysing activity ([9]; chymostatin 0.64 μM): 74.9% | Activity (%), S-2586 hydrolysing activity ([9]; chymostatin 2.56 μM): 33% | Activity (%), S-2586 hydrolysing activity ([9]; chymostatin 41 μM): 1.9%
